Test results: PubChem BioAssay AID179 (DTP/NCI, 2004)
Active and inactive are the calls of the source.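 How the source made its calls: active means compounds giving half or more protection of infected cells from virus-caused growth loss, again on retest; inactive means the rest.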 Where a SMILES comes first, the peptide text is derived from it. [ ]: non-standard residue; d: D form. The star is where a group is joined. Phe(4-NO2) = N[CH](Cc1ccc([N+](=O)[O-])cc1)C(=O)O; Cbz = O=C(OCc1ccccc1)*

System: CEM cells HIV-1 protection, formazan growth assay
Assay: NCI AIDS Antiviral Assay
Conditions: for IC50: measured here: growth of uninfected CEM cells
Procedure, shortened: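 Protection of CEM cells against HIV-1 measured as cell growth via soluble formazan read-out, with five concentrations tested on both infected and uninfected cells; failure to protect may reflect toxicity.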

Structure (SMILES)	EC50	IC50	outcome
Cc1ccc(NC(=O)CC(=O)N2N=C(N(CCC#N)c3cccc(C)c3)CC2c2ccccc2)cc1 (stereo not given)	> 75.9 µM	> 75.9 µM	–
CC(=O)SCC1OC(n2cc(C)c(=O)[nH]c2=O)CC1O (stereo not given)	> 200 µM	> 200 µM	–
CC12CC(C/C1=N/O)C(C)(C)C2 (stereo not given)	> 1480 µM	> 1480 µM	–
Cn1c2ccccc2c2cc(N3CCCC3)c3c(c21)C(=O)N(c1ccccc1)C3=O	> 200 µM	> 200 µM	–
Cc1cc2nnc(-c3cccc([N+](=O)[O-])c3)n2c2nnnn12	> 200 µM	> 200 µM	–
COC1(C(C)(C)C)C=C(C(C)(C)C)P(=O)(O)O1 (stereo not given)	> 200 µM	> 200 µM	–
Nn1c(Sc2nc3ccccc3c(=O)n2N)nc2ccccc2c1=O	> 200 µM	3.8 µM	–
COC(=O)C(/C(=N\O)C(=O)Nc1ccc(Br)cc1)c1nc2ccccc2[nH]c1=O (stereo not given)	> 141 µM	> 141 µM	–
Cc1ccc(/C=C/C(=O)c2cc(CN(C)C)c(O)c(CN(C)C)c2)cc1	> 200 µM	20.4 µM	–
O=[N+]([O-])C(Cl)C(Cl)C(Cl)=C(Cl)Cl (stereo not given)	> 200 µM	> 200 µM	–
CCOC(=O)CCC(NC(=O)OCc1ccccc1)C(=O)NC(CCC(=O)OCC)C(=O)NC(CCC(=O)OCC)C(=O)NC(CCC(=O)OCC)C(=O)NC(CCC(=O)OCC)C(=O)NC(Cc1ccc([N+](=O)[O-])cc1)C(=O)NC(CCC(=O)OCC)C(=O)NC(CCC(=O)OCC)C(=O)NC(CCC(=O)OCC)C(=O)NC(CCC(=O)OCC)C(=O)NC(CCC(=O)OCC)C(=O)OCC (stereo not given) (Cbz-E(OEt)E(OEt)E(OEt)E(OEt)E(OEt)[Phe(4-NO2)]E(OEt)E(OEt)E(OEt)E(OEt)E(OEt)-OEt; configuration not given here)	> 50.1 µM	> 50.1 µM	–
COc1ccc2cc(C(C)C(=O)N3CCOC3=O)ccc2c1 (stereo not given)	> 200 µM	> 200 µM	–
COC(=O)/C(=N\O)C(C(=O)C=C(C)C)C(=O)C(=O)Nc1ccccc1C (stereo not given)	> 692 µM	> 692 µM	–
Cc1cc(N(CCC#N)CCC#N)ccc1CC1N=C(c2ccccc2)OC1=O (stereo not given)	> 93.3 µM	> 93.3 µM	–
O=C(OCCN1CCCC1)c1cc2ccccc2[nH]1	> 200 µM	> 100 µM	–
O=C(NCCNCCCNC(=O)c1cc(-c2ccccc2)nc2ccccc12)c1cccc(OCc2ccccc2)c1OCc1ccccc1	> 200 µM	1.1 µM	–

Structure (SMILES)	EC50	IC50	outcome
COc1cccc(C=O)c1[O-].[O]=[U](=[O])([OH2+])[OH2+]	> 79.4 µM	39.8 µM	–
CCC1(O)C(=O)Nc2ccc(OC)cc2C1=O (stereo not given)	–	–	inactive
COc1ccc(/C=C(/NC(=O)c2ccccc2)C(=O)Nc2ccccc2)cc1OC	> 200 µM	> 200 µM	–
O=c1c(C=Nc2ccccc2Cl)c(O)n(-c2ccccc2)c(=O)n1-c1ccccc1	–	–	inactive
COc1cccc2c1OC1(N3CCOCC3)CCCCC1C2C[N+](=O)[O-] (stereo not given)	> 200 µM	> 200 µM	–
O=C1NC(CSSCC2NC(=O)N(c3ccccc3)C2=O)C(=O)N1c1ccccc1 (stereo not given)	> 200 µM	1.12 µM	–
O=C(O)CNC(=O)OCCCCOC(=O)NCC(=O)O	> 851 µM	> 851 µM	–
OC(CCNC12CC3CC(CC(C3)C1)C2)c1ccccc1 (stereo not given)	–	–	inactive
CC(=O)NC(CCCN(Cc1ccccc1)C(=O)NCCCl)C(=O)NCc1ccccc1 (stereo not given)	> 389 µM	347 µM	–
Cn1c2ccccc2c(=S)c2c(O)cc3c(c21)C=CC(C)(C)O3	> 200 µM	> 200 µM	–
O=C1c2ccccc2C(=O)c2c1ccc1c3ccccc3n(Cc3ccccc3)c21	–	–	inactive
CCn1c2ccccc2c2nnc(NCCCO)nc21	> 200 µM	141 µM	–
Cc1nn(-c2ccccc2)c2[nH]c(=S)cnc12	> 200 µM	87.1 µM	–
Cc1c(C(=O)C/C(=N/NC(=O)C[n+]2ccccc2)C(=O)Nc2ccccc2)[n+](=O)c2ccccc2n1O	> 17.8 µM	> 17.8 µM	–
COC(=O)c1ccccc1C1CN=NC12Cc1ccc3ccccc3c1C2=O (stereo not given)	> 200 µM	> 200 µM	–
O=C(NC(O)(C(F)(F)F)C(F)(F)F)c1ccccc1	> 200 µM	129 µM	–
